According to patent publication US10526402B2, “Anti-TGF-beta antibody for the treatment of fanconi anemia” (Dana-Farber Cancer Institute, Inc., priority 2015, dated 2020):

Assays:
[1] = tested on: GM6914 (FA-A) cells; assay: RAD51 foci formation by immunofluorescence; format: cell-based; conditions: 1 μM MMC and 10 μM inhibitors for 6h; FIG. 8E, F
Description: (§1) (A) Experimental scheme for inhibition of TGF-β Pathway in mice. WT or Fancd2−/− mice were treated with isotype or 1D11 antibody (10 mg/kg) for 48h, and bone marrow HSCs were sorted for gene expression profile and cell cycle analysis. […] Cell cycle analysis of HSCs from WT or Fancd2−/− mice treated with isotype or 1D11 antibody for 48h is shown. Error bars represent mean±s.e.m. (n=4 mice per group). […] Homologous recombination assay was measured in U2OS cells with DR-GFP reporter after treatment with […] RI-1 and 10 μM B02. The representative of two independent experiments is presented; error bars represent mean±s.e.m. […] GM6914 (FA-A) cells or corrected GM6914+FANCA cells were treated with 1 μM MMC and 10 μM inhibitors for 6h before immunofluorescence analysis. Representative images (E) and quantification (F) of RAD51 foci are shown. […] HSPCs from WT or Fancd2−/− mice were treated with B02 (10 μM) or RI-1 ([…]) in vitro for five days and survival was determined. […] HSPCs from WT or Fancd2−/− mice were exposed to 1D11 (10 μg/mL) and RAD51 inhibitors (10 μM) for 30 min followed by exposure to acetaldehyde for 4 hrs. The cells were then washed and cultured in presence of 1D11 and RAD51 inhibitors for 7-9 days, and hematopoietic colonies were counted.
Cells were grown on coverslip for 24 hours before treated with MMC. […]

[2] = tested on: U2OS cells; assay: Homologous recombination assay with DR-GFP reporter; format: cell-based; conditions: 10 μM B02, FIG. 8D
Description: as §1

[3] = tested on: HSPCs from WT or Fancd2−/− mice; assay: Cytotoxicity of RAD51 inhibitors in HSPCs; format: cell-based, mouse; conditions: B02 (10 μM) or RI-1 (1004) in vitro for five days; FIG. 8G
Description: as §1

[4] = tested on: TGFβ pathway; assay: Immunoblot of p-Smad2 in stromal cells; format: cell-based, mouse; conditions: FIG. 1A bottom panel
[5] = tested on: Fancd2−/− stromal cells; assay: Survival of stromal cells in the presence of MMC; format: cell-based, mouse; conditions: FIG. 1A
Description: (§2) For survival assays, cells were seeded at a density of 1×10^3 cells per well in 96-well plates. After 72 hours of culture in indicated concentrations of MMC or post exposure of acetaldehyde, viability was assessed using CellTiterGlo reagent (Promega). In order to assess clonogenicity, cells were seeded at a low density (500-1000 cells per well) in 6-well plates and allowed to form colonies. The cells were then fixed in methanol/20% acetic acid and stained with 1% crystal violet. Colony formation was assessed by solubilizing crystal violet stain with methanol and quantifying UV absorbance for each condition.
as §2, with “3-6 days” for “72 hours”, “Colonies were counted after” for “Colony formation was assessed by solubilizing”, “staining.” for “stain with methanol and quantifying UV absorbance for each condition.”

[6] = tested on: Lin− cells from WT and Fancd2−/− mice; assay: Lin− cell growth under mTGFβ; format: cell-based, mouse; conditions: mTGFβ 1 ng/mL; FIG. 2B
Description: For mouse hematopoietic stem/progenitor cell culture, Lin^− cells were cultured in vitro in StemSpan SFEM media with 10 ng/mL SCF, 20 ng/mL IGF-2, 20 ng/mL TPO, 10 ng/mL heparin, and 10 ng/mL a-FGF. Half media was changed every three days. For human cord blood cells, CD34+ cells were isolated using CD34 microbead kit (Miltenyi Biotec). Cells were cultured in StemSpan SFEM media with 100 ng/mL hSCF, 100 ng/mL FLT3 ligand, 10 ng/mL TPO, 10 ng/mL IL-6. Cells were treated with 10 ug/mL 1D11 or 10 μM SD208.
To perform flow cytometry analysis, Lin^− cells were collected at day 2 and 5 post transduction and suspended in staining medium (PBS with 2% heat-inactivated calf serum), and incubated with PE-conjugated c-Kit and APC-conjugated Sca-1 antibodies were added to the cells for 30 min at 4° C. in the dark. Stem cell population (GFP^+Lin^−c-Kit^+Sca-1^+) was analyzed by FACS. All these antibodies were purchased from eBioscience.

| SMILES | RAD51 foci formation [1] | HR efficiency (DR-GFP recombination) [2] | cytotoxicity in HSPCs (survival) [3] | activation of the TGFβ pathway (p-Smad2) in murine stromal cells [4] | MMC sensitivity / resistance (survival) of Fancd2−/− stromal cells [5] | suppressive effect of exogenous mTGFβ on Lin− cell growth [6] |
| --- | --- | --- | --- | --- | --- | --- |
| O=c1c2ccccc2nc(/C=C/c2cccnc2)n1Cc1ccccc1 [B02] | efficiently block RAD51 foci formation | significantly decrease HR efficiency | do not show cytotoxicity | – | – | – |
| O=C1C(Cl)=C(N2CCOCC2)C(=O)N1c1ccc(Cl)c(Cl)c1 [RI-1] | efficiently block RAD51 foci formation | significantly decrease HR efficiency | do not show cytotoxicity | – | – | – |
| Fc1ccc(Cl)cc1-c1nc(Nc2ccncc2)c2nccnc2n1 [SD208] | – | – | – | inhibition of TGFβ signaling | restores MMC resistance | rescued the inhibitory effect |
